# Measurements reported in article PMC11359932 (Viruses, 2024).
# Like-named read-outs stand apart in the source and are kept apart here.
# How the values were obtained:
# [1] = system: SARS-CoV PLpro; details: read-out: IC50 against SARS-CoV PLpro; cited from earlier work
# [2] = system: SARS-CoV-2; design: method as in earlier work; details: viral loads and survival rates; cited from earlier work
# [3] = biological target: T1, SARS-CoV-2 PLpro (Severe acute respiratory syndrome coronavirus 2, UniProt P0DTD1); experiment: biochemical; details: for Fold increase of IC50 in presence of Tween-20: 0.01% Tween-20 versus none; for IC50: CIY substrate
# [4] = Cellular cytotoxicity (CCK-8 / WST assay); assay type: cell-based; details: African green monkey, Vero CCL81 cells; 48 h treatment
# [5] = biological target: USP25 (Homo sapiens, UniProt Q9UHP3); experiment: USP25 selectivity FRET assay (CFP-ubiquitin-YFP substrate); assay type: biochemical; details: for SI (selectivity index): IC50-USP25/IC50-PLpro
# [6] = biological target: T1, SARS-CoV-2 PLpro; experiment: Surface plasmon resonance binding to immobilized PLpro; details: SPR, buffer with Tween-20, 25 °C
# [7] = system: SARS-CoV-2 WA1 strain; experiment: Antiviral immunofluorescence assay (IFA) in Vero-E6 cells, WA1 strain; assay type: cell-based; details: Severe acute respiratory syndrome coronavirus 2, Vero C1008, MOI 0.01, Vero-E6 cells
# [8] = system: SARS-CoV-2 WA1 strain; experiment: Antiviral plaque reduction assay (PRA) in Vero-E6 cells; details: read-out: EC50-PRA, MOI 0.01, Vero-E6 cells
# [9] = biological target: T1, SARS-CoV-2 PLpro; experiment: Inhibition mechanism, Lineweaver-Burk plot with peptide-AMC substrate; assay type: biochemical; details: 40 nM PLpro
# [10] = system: SARS-CoV-2 Omicron (B.1.1.529); experiment: microbe, parasite or virus in culture; assay type: cell-based
# [11] = IC50-PLpro-tw, with 0.01% Tween-20
# USP25, sequence (Q9UHP3 157-706): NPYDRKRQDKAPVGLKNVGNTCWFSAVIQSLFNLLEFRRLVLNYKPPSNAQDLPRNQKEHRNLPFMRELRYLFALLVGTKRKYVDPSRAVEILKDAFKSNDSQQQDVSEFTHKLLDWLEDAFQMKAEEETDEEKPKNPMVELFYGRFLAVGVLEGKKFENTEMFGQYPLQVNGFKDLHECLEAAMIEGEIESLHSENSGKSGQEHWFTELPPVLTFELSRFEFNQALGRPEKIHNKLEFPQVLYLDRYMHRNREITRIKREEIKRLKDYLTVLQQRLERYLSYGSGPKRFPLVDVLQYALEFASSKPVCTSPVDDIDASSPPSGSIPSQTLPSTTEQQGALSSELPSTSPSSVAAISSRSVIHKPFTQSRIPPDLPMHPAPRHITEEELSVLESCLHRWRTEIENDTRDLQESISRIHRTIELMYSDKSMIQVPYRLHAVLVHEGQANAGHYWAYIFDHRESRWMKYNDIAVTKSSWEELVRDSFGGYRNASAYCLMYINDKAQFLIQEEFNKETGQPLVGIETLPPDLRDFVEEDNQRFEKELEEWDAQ
smiles,measurement,setting,value
CCn1ccc(-c2cc(-c3cnn(C)c3)cc([C@@H](C)NC(=O)c3cc(OCCN(C)C)ccc3C)c2)n1 [Jun12682],Efficacy in mouse model infected with SARS-CoV-2,[2],efficacy in reducing viral loads and enhancing survival rates
CN1CCN(c2ccc([N+](=O)[O-])c3no[n+]([O-])c23)CC1 [NSC207895],Fold increase of IC50 in presence of Tween-20,[3],more than 5 fold
same,IC50,"[3]; IC50-PLpro, without Tween-20",0.9 µM
same,IC50,[3]; [11],5 µM
COC(=O)C1(C)Cc2cc(OC(C)=O)c(OC(C)=O)cc2N1 (stereo not shown) [NSC341956],Fold increase of IC50 in presence of Tween-20,[3],> 16 fold
same,IC50,"[3]; with 0.01% Tween-20, read-out: IC50-PLpro-tw",> 200 µM
same,IC50,"[3]; without Tween-20, read-out: IC50-PLpro",12.4 µM
COC(=O)c1cc2c(n1S(=O)(=O)c1ccc(C)cc1)C(=O)C(=O)c1[nH]cc(C(=O)OCc3ccccc3)c1-2 [NSC679525],CC50 at 48 h,[4],18.6 µM
same,IC50,"[5]; CFP-ubiquitin-YFP substrate, without Tween-20",41 µM
same,SI (selectivity index),[5],> 4.7
same,SI (selectivity index),[5]; listed as 679525,6.8
same,Kd,[6],4.1 µM
same,EC50,[7],2800 nM
same,EC50,[8],400 nM
same,IC50,"[3]; IC50, 5 Min Incubation, 5 min preincubation with the enzyme",16.8 µM
same,IC50,"[3]; IC50, 60 Min Incubation, 60 min preincubation with the enzyme",10.2 µM
same,IC50,"[3]; IC50-PLpro, without Tween-20",6 µM
same,IC50,[3]; [11],11 µM
same,Putative Mode of Action (mechanism of inhibition),[9],Non-competitive
same,EC50,"[10]; Severe acute respiratory syndrome coronavirus 2, Vero C1008, read-out: EC50-Omi",5.42 µM
same,EC50,[10]; read-out: EC50-Omi,5.4 µM
